According to PubChem BioAssay (NCI):
Where “and” joins values, the source holds several entries; their conditions need not be identical. Identical values can stand only once.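 Tested at 5 concentrations; 48 h exposure; 96-well plates; endpoints linearly interpolated, else capped at highest concentration. GI50 = concentration required for 50% inhibition of growth. TGI is the concentration that stops growth completely.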

How the values were obtained:
Assay in all cases: NCI anticancer screen, dose series, 48 h
CCRF-CEM leukemia = test system: CCRF-CEM leukemia
LOX IMVI melanoma = test system: LOX IMVI melanoma
M14 melanoma = test system: M14 melanoma
RPMI-8226 leukemia = test system: RPMI-8226 leukemia
SF-268 CNS = test system: SF-268 CNS
SF-539 CNS = test system: SF-539 CNS
SK-MEL-28 melanoma = test system: SK-MEL-28 melanoma
SR leukemia = test system: SR leukemia
TK-10 renal = test system: TK-10 renal
MDA-MB-231 breast = test system: MDA-MB-231 breast

Compound | TGI (CCRF-CEM leukemia) | TGI (LOX IMVI melanoma) | TGI (M14 melanoma) | TGI (RPMI-8226 leukemia) | TGI (SF-268 CNS) | TGI (SF-539 CNS) | TGI (SK-MEL-28 melanoma) | TGI (SR leukemia) | TGI (TK-10 renal) | GI50 (CCRF-CEM leukemia) | GI50 (LOX IMVI melanoma) | GI50 (SF-539 CNS) | GI50 (SK-MEL-28 melanoma) | GI50 (M14 melanoma) | GI50 (MDA-MB-231 breast) | TGI (MDA-MB-231 breast) | GI50 (RPMI-8226 leukemia) | GI50 (SF-268 CNS) | GI50 (TK-10 renal)
O=C(/C=C/c1ccc(Cl)c(Cl)c1)c1ccc2ccccc2c1 | > 100 µM | > 100 µM | > 100 µM | > 100 µM | > 100 µM | > 100 µM | > 100 µM | > 100 µM | > 100 µM |  |  |  |  |  |  |  |  |  | 
Nc1ccccc1/C(O)=C1/CCOC1=O | > 100 µM |  | > 100 µM | > 100 µM | > 100 µM |  | > 100 µM | > 100 µM | > 100 µM |  |  |  |  |  |  |  |  |  | 
COc1cc(/C=C/c2ccc(OC)c(O)c2)cc(OC)c1 | 15.2 µM | 34.2 µM | 12.8 µM | 9.92 µM | 80.5 µM | 8.47 µM | 24.5 µM |  | 91.4 µM |  |  |  |  |  |  |  |  |  | 
O=C(CC(=O)n1nc(-c2ccccc2)c(N=Nc2ccc(Cl)cc2)c1-c1ccccc1)Nc1ccc(Cl)cc1 | > 62.8 µM | > 56.9 µM | > 100 µM | > 64.6 µM | > 100 µM | > 100 µM | > 100 µM | > 100 µM | > 100 µM |  |  |  |  |  |  |  |  |  | 
CNC(=S)/N=C(\N)N(C)C |  | > 100 µM | > 100 µM | > 100 µM | > 100 µM | > 100 µM | > 100 µM | > 100 µM | > 100 µM |  |  |  |  |  |  |  |  |  | 
COc1cc2[nH]c3c(c2cc1OC)CCN[C@]31CC[C@]2(CC3c4c(cc(OC)c(O)c42)CCN3C)C[C@H]1OC (some centres not stated) | 26.7 µM | 56 µM | 29.5 µM | 41.9 µM | 68.2 µM | 31.5 µM | 36.6 µM | 40 µM | 51.1 µM |  |  |  |  |  |  |  |  |  | 
CCCC1=C(CC)C(C(=O)Nc2c(C)cccc2C)=NC(S)N1 (configuration not stated) | > 100 µM |  | > 100 µM | > 100 µM | > 100 µM | > 100 µM | > 100 µM | > 100 µM | > 100 µM |  |  |  |  |  |  |  |  |  | 
c1cnn(CN(Cn2cccn2)Cn2cccn2)c1 | > 100 µM | > 100 µM | > 100 µM | > 100 µM | > 100 µM | > 100 µM | > 100 µM | > 100 µM | > 100 µM |  |  |  |  |  |  |  |  |  | 
COc1cc(Cc2nccc3cc(OC)c(OC)cc23)c(C(C)=O)cc1OC | 98.2 µM and 63 µM | 300 µM and > 750 µM | > 750 µM | 265 µM and > 750 µM | 419 µM | > 94.9 µM and 66.1 µM | 42.1 µM and 331 µM | > 750 µM | 341 µM | 15.4 µM and 16.2 µM | 150 µM and 94 µM | 85.3 µM and 19.9 µM | 20.4 µM and 142 µM |  |  |  |  |  | 
O=C(O)CNS(=O)(=O)c1ccc(NC(=O)c2ccc([N+](=O)[O-])cc2)cc1 | > 100 µM | > 100 µM | > 100 µM | > 100 µM | > 100 µM | > 100 µM | > 100 µM |  | > 100 µM |  |  |  |  |  |  |  |  |  | 
COc1ccc(CN2CC(C)(C)C2=O)c(OC)c1 | > 100 µM | > 100 µM | > 100 µM | > 100 µM | > 100 µM | > 100 µM | > 100 µM |  | > 100 µM |  |  |  |  |  |  |  |  |  | 
CC1=CC(C)(C)N=C2SC(c3ccc(N)cc3)=NN12 | > 72.4 µM | > 100 µM | > 100 µM | > 66.3 µM | > 100 µM | > 100 µM | > 100 µM | > 72.1 µM | > 100 µM |  |  |  |  |  |  |  |  |  | 
CCCCNC1CCCCC[C@H]1O (some centres not stated) | > 100 µM | > 100 µM | > 100 µM | > 100 µM | > 100 µM | > 100 µM | > 100 µM | > 100 µM | > 100 µM |  |  |  |  |  |  |  |  |  | 
O=C(Nc1cc(Cl)c(Cl)cc1Cl)C(=O)C1C(=O)NC(=S)NC1=O | > 100 µM | > 100 µM | > 100 µM | > 100 µM | > 100 µM | > 100 µM | > 100 µM | > 100 µM | > 100 µM |  |  |  |  |  |  |  |  |  | 
COC(=O)C(Cc1nc2ccccc2[nH]c1=O)C(NO)C(=O)Nc1c(Cl)cc([N+](=O)[O-])cc1Cl (configuration not stated) | 65.3 µM |  | > 100 µM | > 100 µM | > 100 µM | 56.5 µM | > 100 µM | > 100 µM |  |  |  |  |  |  |  |  |  |  | 
CCOC(=O)/C(C)=C(/O)C(=O)OCC | > 100 µM | > 100 µM | > 100 µM | > 100 µM | > 100 µM | > 100 µM | > 100 µM |  | > 100 µM |  |  |  |  |  |  |  |  |  | 
O=C(CCc1nc(=S)[nH][nH]1)Nc1ccccc1Cl | > 100 µM | > 100 µM | > 100 µM | > 100 µM | > 100 µM | > 100 µM | > 100 µM | > 100 µM | > 100 µM |  |  |  |  |  |  |  |  |  | 
Cc1nnc(NS(=O)(=O)c2ccc(N=Nc3cc(N=Nc4ccc(S(=O)(=O)Nc5nnc(C)s5)cc4)c4c(NC(=O)C(Cl)Cl)cccc4c3OC(=O)C(Cl)Cl)cc2)s1 (tested in a mixture with another compound) | > 100 µM | > 100 µM | 73.4 µM | 21 µM | > 100 µM | 43 µM | 48.5 µM |  | 95.6 µM |  |  |  |  |  |  |  |  |  | 
CCCN(CCC)C(=O)c1c([N+](=O)[O-])cc(C(F)(F)F)cc1[N+](=O)[O-] | > 100 µM | > 100 µM | > 100 µM | > 100 µM | > 100 µM | > 100 µM | > 100 µM | > 100 µM | > 100 µM |  |  |  |  |  |  |  |  |  | 
O=C(N/N=C/c1cc(Br)ccc1O)N/N=C/c1cc(Br)ccc1O | > 100 µM | > 100 µM |  |  | > 100 µM | > 100 µM | > 100 µM | > 100 µM | > 100 µM |  |  |  |  |  |  |  |  |  | 
COc1ccc(-c2nc3ccccn3c2/C=C/C(=O)c2cc(OC)c(OC)c(OC)c2)cc1OC | > 100 µM | 6.62 µM | 45.1 µM | 2.51 µM | 65.2 µM | 14.7 µM | 14.7 µM |  | 8.74 µM | 1.54 µM | 2.26 µM | 2.71 µM | 3.3 µM | 4.48 µM | 3.28 µM | 45 µM | 398 nM | 3.58 µM | 3.28 µM
CC1=[N+]([O-])c2ccccc2C(=O)C1=O | 74.2 µM | > 100 µM | > 100 µM | > 100 µM | > 100 µM | > 100 µM | > 100 µM |  | > 100 µM |  |  |  |  |  |  |  |  |  | 
